“And” between values parts separate entries of the source, which are not always exact repeats. Identical values can stand only once.
Experiments:
human MAO-A = target: T1, human MAO-A (Homo sapiens, UniProt P21397); assay: Human MAO isoform inhibition assay (fluorometric), MAO-A; assay type: biochemical; settings: mean ± SEM, n = 3; read-out: IC50 (μM) ± SEM hMAO-A
T1 sequence (P21397 1-527): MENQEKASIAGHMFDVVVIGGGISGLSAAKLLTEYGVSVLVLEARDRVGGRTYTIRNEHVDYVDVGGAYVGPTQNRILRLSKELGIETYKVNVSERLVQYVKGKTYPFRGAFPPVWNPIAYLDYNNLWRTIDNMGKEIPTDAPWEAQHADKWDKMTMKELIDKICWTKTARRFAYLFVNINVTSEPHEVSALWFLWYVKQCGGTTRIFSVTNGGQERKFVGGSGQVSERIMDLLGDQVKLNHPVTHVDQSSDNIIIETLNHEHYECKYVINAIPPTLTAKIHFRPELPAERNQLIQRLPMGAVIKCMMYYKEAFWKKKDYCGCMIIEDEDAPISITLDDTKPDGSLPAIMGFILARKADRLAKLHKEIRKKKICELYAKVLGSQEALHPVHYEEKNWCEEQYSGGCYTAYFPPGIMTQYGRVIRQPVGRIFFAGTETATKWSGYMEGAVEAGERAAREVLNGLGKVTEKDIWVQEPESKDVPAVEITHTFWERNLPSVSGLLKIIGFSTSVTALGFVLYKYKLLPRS
Protocol: (§1) The human MAO isoform assay was also carried out using a fluorescence-based assay protocol according to the reported literature.
(§2) Inhibitory activity of the synthesized compounds against MAO isoforms, specifically human MAO-A and MAO-B, was determined by using benzylamine and tyramine substrates in the dark (protected from light) in a 96-well plate by an already reported fluorometric method.[31],[32]

human MAO-B = target: T2, human MAO-B (Homo sapiens, UniProt P27338); assay: Human MAO isoform inhibition assay (fluorometric), MAO-B; assay type: biochemical; settings: for IC50: mean ± SEM, n = 3, read-out: IC50 (μM) ± SEM hMAO-B; for SI (IC50 hMAO-A/IC50 hMAO-B): selectivity index
T2 sequence (P27338 1-520): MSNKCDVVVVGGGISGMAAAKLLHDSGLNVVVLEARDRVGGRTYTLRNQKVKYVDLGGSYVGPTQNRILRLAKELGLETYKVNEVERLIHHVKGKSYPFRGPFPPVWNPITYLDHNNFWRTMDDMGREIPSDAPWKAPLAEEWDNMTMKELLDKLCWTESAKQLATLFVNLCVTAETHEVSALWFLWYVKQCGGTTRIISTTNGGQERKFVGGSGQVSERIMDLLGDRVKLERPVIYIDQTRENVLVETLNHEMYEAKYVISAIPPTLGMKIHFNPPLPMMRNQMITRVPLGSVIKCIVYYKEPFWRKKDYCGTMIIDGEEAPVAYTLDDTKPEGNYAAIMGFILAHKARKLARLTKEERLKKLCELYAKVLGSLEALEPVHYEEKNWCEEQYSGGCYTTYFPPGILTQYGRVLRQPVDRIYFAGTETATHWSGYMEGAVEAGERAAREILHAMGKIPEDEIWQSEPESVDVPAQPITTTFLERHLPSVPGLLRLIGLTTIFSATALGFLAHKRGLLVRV
Protocol: as §1, §2

[1] = target: Electrophorus electricus AChE (Electrophorus electricus, UniProt O42275); assay: biochemical; assay type: biochemical; settings: for IC50: mean ± SEM, n = 3, read-out: IC50 (μM) ± SEM eeAChE; for SI = IC50 of BChE/IC50 of AChE: selectivity index
Protocol: (§3) The synthesized compounds were evaluated for their inhibition potential against cholinesterases (Electrophorus electricus AChE and equine serum lyophilized BChE).
(§4) The cholinesterase in vitro bioassay for the synthesized compounds was performed using already reported protocols.[29],[30] Ellman’s assay method was used to study the inhibition of Electrophorus electricus AChE and Equine Serum lyophilized BChE. Stock solutions of synthesized compounds were prepared in potassium phosphate buffer (pH 8.0). A sufficient amount of 5,5-dithio-bis-2-nitrobenzoic acid (DTNB, Ellman’s reagent), a stock solution of synthesized compounds, and 0.03 U/ml of the enzyme (AChE or BChE) were added to a 96-well plate and incubated at 30 °C for 10 min. Subsequently, 1 mM ATCI or BTCI was added, and the reaction mixture was incubated for 15 min. […] Sample concentration was plotted against inhibitory activity to obtain IC50 values.

[2] = target: T3, equine serum lyophilized BChE (Equus caballus, UniProt P81908); assay: biochemical; settings: mean ± SEM, n = 3; read-out: IC50 (μM) ± SEM eqBChE
T3 construct: Equine Serum lyophilized BChE; from tissue; host or cells: equine serum
Protocol: as §3, §4

AChE = settings: cited from earlier work
BChE = settings: read-out: BChE enzyme inhibition dissociation constant (Ki value); cited from earlier work
in vitro = assay: in vitro
Protocol: A fundamental requirement for the effectiveness of anti-AD drugs is their capability to traverse the BBB (blood–brain barrier). […]
Briefly, synthesized compounds were first dissolved in DMSO (10 mM) that was further diluted by the addition of phosphate buffer ([…]) having a pH of 7.4. PBL dissolved in dodecane was used for coating the membranes of the donor plates. Then, the test compound (0.2 mL) was added to the plate, followed by PBS (0.2 mL; pH = 7.4) to the acceptor plate, which was further placed under the donor plate in order to form a “sandwich”. […] A UV plate reader was employed for the measurements of the drug concentration in donor, acceptor, and reference wells. The permeability (Pe) of the compounds was measured by using the following formula. [drawing 2]

Chain of Electrophorus electricus AChE (O42275 24-633): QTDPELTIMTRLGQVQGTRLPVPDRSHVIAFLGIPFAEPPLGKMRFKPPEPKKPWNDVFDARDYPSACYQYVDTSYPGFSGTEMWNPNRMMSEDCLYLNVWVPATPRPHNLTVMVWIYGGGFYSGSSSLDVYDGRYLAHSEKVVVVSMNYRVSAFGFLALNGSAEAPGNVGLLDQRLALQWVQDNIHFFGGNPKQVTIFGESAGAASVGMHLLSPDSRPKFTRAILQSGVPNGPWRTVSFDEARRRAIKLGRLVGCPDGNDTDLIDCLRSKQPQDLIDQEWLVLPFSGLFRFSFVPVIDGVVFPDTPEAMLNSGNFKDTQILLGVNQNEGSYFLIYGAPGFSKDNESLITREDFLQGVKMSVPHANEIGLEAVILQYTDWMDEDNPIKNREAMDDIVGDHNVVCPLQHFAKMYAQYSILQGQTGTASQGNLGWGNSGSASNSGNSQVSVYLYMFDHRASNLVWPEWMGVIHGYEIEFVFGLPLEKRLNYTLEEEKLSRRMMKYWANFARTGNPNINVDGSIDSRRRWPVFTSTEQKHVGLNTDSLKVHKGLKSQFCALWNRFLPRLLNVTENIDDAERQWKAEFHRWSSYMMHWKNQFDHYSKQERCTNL
T3 sequence (P81908 whole entry): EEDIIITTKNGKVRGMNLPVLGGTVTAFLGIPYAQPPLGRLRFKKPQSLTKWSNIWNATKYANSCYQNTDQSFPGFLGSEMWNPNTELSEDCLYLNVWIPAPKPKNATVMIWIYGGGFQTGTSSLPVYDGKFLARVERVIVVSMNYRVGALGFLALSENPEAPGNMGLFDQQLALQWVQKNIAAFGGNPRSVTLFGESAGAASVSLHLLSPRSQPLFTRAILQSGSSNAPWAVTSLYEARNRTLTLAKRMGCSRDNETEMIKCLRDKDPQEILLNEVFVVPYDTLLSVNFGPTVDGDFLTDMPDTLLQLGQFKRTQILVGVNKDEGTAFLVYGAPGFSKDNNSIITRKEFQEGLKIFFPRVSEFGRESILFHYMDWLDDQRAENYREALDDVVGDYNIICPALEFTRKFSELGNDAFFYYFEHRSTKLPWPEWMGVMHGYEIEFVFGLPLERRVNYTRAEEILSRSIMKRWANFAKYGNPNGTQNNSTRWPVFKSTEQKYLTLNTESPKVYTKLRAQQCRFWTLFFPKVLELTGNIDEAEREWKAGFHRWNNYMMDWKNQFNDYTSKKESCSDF

SMILES	IC50 (human MAO-A)	IC50 (human MAO-B)	SI (IC50 hMAO-A/IC50 hMAO-B) (human MAO-B)	IC50 [1]	SI = IC50 of BChE/IC50 of AChE [1]	IC50 [2]	also measured
O=C1c2ccccc2C(=O)N1Cc1ccc(-c2cccc3ccccc23)cc1 [3j]	6.98 ± 0.2 µM	0.13 ± 0.01 µM	53	0.61 ± 0.03 µM	31	18.9 ± 1.08 µM	
O=C1c2ccccc2C(=O)N1Cc1ccc(-c2ccc3c(c2)OCO3)cc1 [3k]	40.4 ± 1.31 µM	0.66 ± 0.03 µM	61	21.1 ± 0.47 µM	3.8 and 4	80.7 ± 1.54 µM	
O=C1c2ccccc2C(=O)N1Cc1ccc(-c2cccs2)cc1 [3l]	8.29 ± 0.33 µM	0.14 ± 0.01 µM	59	0.91 ± 0.02 µM	61	55.3 ± 1.31 µM	
Cc1ccc2cc(-c3ccc(CN4C(=O)c5ccccc5C4=O)cc3)ccc2n1 [3m]	23.5 ± 1.12 µM	0.15 ± 0.01 µM	156	0.89 ± 0.1 µM	35	31.1 ± 0.79 µM	
O=C1c2ccccc2C(=O)N1C/C=C/CN1CCN(Cc2ccccc2)CC1 [III]							Ki (AChE; read-out: AChE enzyme inhibition dissociation constant (Ki value)): 193 µM
COc1cc(CN2C(=O)c3cc(Cl)c(Cl)cc3C2=O)cc(OC)c1OC [II]							IC50 (AChE; reported in the literature, ref number not given): 0.0135 µM
O=C1c2ccccc2C(=O)N1CCc1cc2ccccc2[nH]1 [IV]							Ki (BChE): 100 µM
C[C@H](NCc1ccc(OCc2cccc(F)c2)cc1)C(N)=O [safinamide, reference compound]							Papp at 20 h (in vitro; PAMPA, pH 7.4): 7.56 ± 0.02 ×10⁻⁶ cm/s; prediction of CNS penetration (in vitro; class from PAMPA-BBB Pe): CNS+ (“CNS+” (prediction of high BBB permeation); Pe (10^–6 cm/s) > 4.39)
